# Laboratory results as given in patent EP0369733A2, “Fluorescent indicator dyes for alkali metal cations, their preparation and use” (THE REGENTS OF THE UNIVERSITY OF CALIFORNIA, priority 1988, dated 1990).
# Assays:
# [1] = Fluorescence excitation/emission spectra and quantum efficiency; assay type: physicochemical; settings: for Quantum efficiency -Na⁺ / Quantum efficiency +Na⁺: relative to quinine bisulfate in 1 N H₂SO₄ (0.55); for Quantum efficiency +Na⁺: saturating Na⁺
# Experimental: (§1) • Footnote a: For molecular structures, see Fig. 1. • Footnote b: Except where otherwise noted, these dissociation constants were measured with the chelator dissolved in 0.1 M tetramethylammonium chloride, at a pH held high enough with 1-5 mM tris(hydroxymethyl)aminomethane for protonation to be insignificant. The absorbance spectrum, or the fluorescence excitation spectrum for those compounds (2GG, 2NN, 2OO, 2PP, 3NN) with acronyms was measured as a function of the concentration of cation added as a solid or concentrated aqueous solution of the halide salt. No correction has been made for the changing ionic strength of the solution, which started from 0.1 M and increased, but the absorbances and fluorescence amplitudes were applied for dilution of the dye and any slight quenching due to high concentrations of Cl⁻. • Footnote c: These protonation constants were determined in 0.1 M tetramethylammonium chloride, 10 mM tris(hydroxymethyl)aminomethane, titrated with 5 M H₃PO₄ to successively lower pH values measured with a Radiometer PHM84 meter. […] The first number is the wavelength in nanometers, followed in parentheses by 10⁻³ x the corresponding extinction coefficient, M⁻¹cm⁻¹. […] Emission maxima are not corrected for the spectral sensitivity of the emission detection. Quantum efficiencies were measured (13) by comparing the integral of the corrected emission spectrum with the corresponding integral for a solution of quinine bisulfate in 1 N H₂SO₄ of matched absorbance at the excitation wavelength.
# UV absorbance spectra were recorded initially on a Cary 210 and later on a Perkin-Elmer Lambda Array 3840 spectrophotometer. Fluorescence excitation and emission spectra and quantum efficiencies were measured on a Spex Fluorolog 111 as described previously (13).
# [2] = Cation titration followed by absorbance or fluorescence excitation spectra: Li⁺ binding; settings: for Kd: 0.1 M tetramethylammonium chloride, 1-5 mM tris(hydroxymethyl)aminomethane, high pH, read-out: Dissociation constants (Kd) in mM for Li⁺
# Experimental: as §1
# (§2) Affinities for other cations were usually measured by titrating aqueous solutions of the indicator with metal chlorides added either as solid or from concentrated stock solutions, taking care to minimize dilution and correct for it. A convenient way to mass-produce premeasured micromole to millimole aliquots of solid NaCl or KCl was to pipet saline solutions into polypropylene micro test tubes and evaporate the water in an oven. The standard ionic background was again 100 mM tetramethylammonium chloride, usually with a few mM of tris(hydroxymethyl)-aminomethane base to hold the pH high enough (pH 8-9) to insure that protonation was negligible. This convenient titration procedure had the slight disadvantage that the ionic strength was not constant, especially when large quantities of a salt had to be added due to weak affinities. […] When constant ionic strength was desired, the chelator was made up at identical concentrations in matched solutions of NaCl, KCl, or tetramethylammonium chloride, then these stocks were mixed in the desired proportions. All measurements were made at room temperature (22°, ±2° C).
# [3] = Effective Kd for Na⁺ against a K⁺ background; assay type: binding
# Experimental: For comparison, Lehn's cryptand [2.2.1] (see ref. 5) is shown in the upper left hand corner. Below cryptand [2.2.1] are three generic types of crown ethers that have been prepared for use in the making some of the compounds of the present invention. To the right of the vertical dividing line are examples of some of the aromatic and heterocyclic substituents that can be attached to the nitrogens of the crown ethers. […] The lowest curve ([Na⁺] = 0) was obtained with 5 µM SBFI in 130 mM KCl, 10 mM MOPS, KOH to pH 7.05, approximately 135 mM total K⁺. The highest curve ([Na⁺] = 135 mM) was analogously recorded from 5 µM SBFI in 130 mM NaCl, 10 mM MOPS, NaOH to pH 7.05. […]
# • Footnote a: For molecular structures, see Fig. 1. • Footnote b: Except where otherwise noted, these dissociation constants were measured with the chelator dissolved in 0.1 M tetramethylammonium chloride, at a pH held high enough with 1-5 mM tris(hydroxymethyl)aminomethane for protonation to be insignificant. The absorbance spectrum, or the fluorescence excitation spectrum for those compounds (2GG, 2NN, 2OO, 2PP, 3NN) with acronyms was measured as a function of the concentration of cation added as a solid or concentrated aqueous solution of the halide salt. […]
# physchem = settings: 0.1 m tetramethylammonium chloride
# Experimental: • Footnote a: For molecular structures, see Fig. 1. • Footnote b: Except where otherwise noted, these dissociation constants were measured with the chelator dissolved in 0.1 M tetramethylammonium chloride, at a pH held high enough with 1-5 mM tris(hydroxymethyl)aminomethane for protonation to be insignificant. […] No correction has been made for the changing ionic strength of the solution, which started from 0.1 M and increased, but the absorbances and fluorescence amplitudes were applied for dilution of the dye and any slight quenching due to high concentrations of Cl⁻. • Footnote c: These protonation constants were determined in 0.1 M tetramethylammonium chloride, 10 mM tris(hydroxymethyl)aminomethane, titrated with 5 M H₃PO₄ to successively lower pH values measured with a Radiometer PHM84 meter.
# Proton dissociation constants of the chelators were measured by spectrophotometry or spectrofluorometry of buffered solutions, containing either 100 mM tetramethylammonium chloride as inert supporting electrolyte, or 121.5 mM K⁺, 13.5 mM Na⁺, and 1 mM Mg²⁺ to simulate the cation environment of vertebrate cytoplasm (14). Traces of UV-absorbing impurities in the tetramethylammonium chloride (Alfa Inorganics) were removed by filtration through acid-­washed activated charcoal. The concentration of the tetramethylammonium chloride was then measured by chloride titration, and the absence of significant Na⁺ contamination was verified with a sodium-selective glass electrode (Microelectrodes Inc.). When the chelators contained two protonatable nitrogens, the curve of absorbance or fluorescence versus pH was analyzed by computerized least-squares fitting to the equations for two arbitrary proton equilibria (15), with the added assumption that the two protonations each caused the same change in extinction coefficient or fluorescence.
# [4] = Cation titration followed by absorbance or fluorescence excitation spectra: Mg²⁺ binding; settings: 0.1 M tetramethylammonium chloride, 1-5 mM tris(hydroxymethyl)aminomethane, high pH, read-out: Dissociation constants (Kd) in mM for Mg²⁺
# Experimental: as §1
# as §2, with “proportions.” for “proportions. All measurements were made at room temperature (22°, ±2° C).”
smiles,measurement,setting,value
"COc1cc2cc(-c3ccc(C(=O)O)cc3C(=O)O)oc2cc1N1CCOCCOCCN(c2cc3oc(-c4ccc(C(=O)O)cc4C(=O)O)cc3cc2OC)CCOCC1 [Compound 2PP, N,N-bis-(2-(2,4-dicarboxyphenyl)-5-methoxybenzofuran-6-yl)-diaza[15]-crown-5]",Emission maxima -Na⁺,"[1]; 100 mM tetramethylammonium chloride, no Na⁺, not corrected for detector sensitivity",551 nanometers
same,emission peak with Ca²⁺,"[1]; Ca²⁺ bound, large hypsochromic shift",432 nm
same,excitation peak wavelength without Na⁺,"[1]; Na⁺-K⁺ mixtures, sum 135 mM, K⁺ only",344 nm
same,excitation peak wavelength with Na⁺,"[1]; Na⁺-K⁺ mixtures, sum 135 mM, Na⁺ bound",336 nm
same,Quantum efficiency -Na⁺,"[1]; no Na⁺, listed as 2PP (SBFI)",.045
same,Quantum efficiency -Na⁺,"[1]; no Na⁺, listed as SBFI",0.045
same,Emission maxima +Na⁺,"[1]; saturating NaCl, not corrected for detector sensitivity",525 nanometers
same,Quantum efficiency +Na⁺,[1]; listed as 2PP (SBFI),.063
same,Quantum efficiency +Na⁺,[1]; listed as SBFI,0.08
same,Li⁺ affinity,[2],15 M⁻¹
same,Kd,[2]; listed as 2PP (SBFI),68 mM
same,Kd,[2]; listed as SBFI,67 mM
same,Kd,"[3]; Na⁺-K⁺ mixtures, sum held constant at 135 mM, 1 mM Mg²⁺ present, pH 7.05, read-out: apparent dissociation constant for Na⁺",17 to 19 mM
same,Kd,"[3]; [Na⁺]+[K⁺] = 280 mM (cytoplasm of marine organisms), read-out: effective Kd for SBFI-Na⁺",28 mM
same,pKa,physchem,6.1
same,Kd,[4]; listed as 2PP (SBFI),60 mM
same,Kd,[4]; listed as SBFI,~60 mM
